# Results published in US9763974B2, “Galacto-rhamnogalacturonate compositions for the treatment of diseases associated with elevated inducible nitric oxide synthase” (Galectin Therapeutics, Inc., priority 2012, dated 2017).
# Test system: inducible nitric oxide synthase (iNOS) in liver tissue
# Experiment: iNOS immunostaining and digital morphometry in liver tissue, STAM mouse model of steatohepatitis
# Type: in vivo
# Settings: STAM mice
# Protocol: The experimental model used in this example is the mouse in which diabetes was induced and a high fat diet was administered, a model that has been called STAM mice. Diabetes is induced immediately following birth with a single injection of streptozotocin and then four weeks later the mice are started on a high fat diet. This is a proven chronic inflammatory model in which the mice consistently develop steatohepatitis with hepatocyte fat accumulation, evidence of hepatocyte toxicity, portal and lobular inflammatory infiltrates, peri-sinusoidal fibrosis, advanced fibrosis with nodule formation, cirrhosis, and ultimately hepatocellular carcinoma in a certain percentage of animals.
# GR-MD-02, produced as described in Example 1, was given in a dose of 60 mg/kg twice weekly intravenously for four (4) weeks starting at week 9 after initiation of the model through week 12.
# GR-MD-02, produced as described in Example 1, was also given in a dose of 120 mg/kg, 60 mg/kg, 30 mg/kg, 10 mg/kg once weekly intravenously for six weeks at the each of the starting at week six of the model and ending at week 12.
substance,measurement,setting,value
galacto-rhamnogalacturonate [GR-MD-02],quantification of iNOS immunoreactivity (FIG. 3),10 mg/kg once weekly intravenously for six weeks,statistically significant reductions
same,quantification of iNOS immunoreactivity (FIG. 3),30 mg/kg once weekly intravenously for six weeks,statistically significant reductions
same,quantification of iNOS immunoreactivity (FIG. 1B),"60 mg/kg twice weekly intravenously for 4 weeks, week 9 through week 12",statistically significant reduction
same,amount of iNOS detected in liver tissue (FIG. 1A),"60 mg/kg twice weekly intravenously for 4 weeks, week 9 through week 12, vs vehicle-treated control",markedly reduced
same,amount of iNOS detected in liver tissue (FIG. 2),"10, 30, 60 or 120 mg/kg once weekly intravenously for six weeks, week 6 to week 12, vs vehicle-treated control",reduced
same,quantification of iNOS immunoreactivity (FIG. 3),various once weekly intravenous doses (10-120 mg/kg) for six weeks,reduction of iNOS immunoreactivity
